The values below come from ChEMBL document CHEMBL1909046, “DrugMatrix in vitro pharmacology data”.

One data set addresses T1, Adenosine receptor A1 (Homo sapiens, UniProt P30542).
T1 sequence (P30542 whole entry): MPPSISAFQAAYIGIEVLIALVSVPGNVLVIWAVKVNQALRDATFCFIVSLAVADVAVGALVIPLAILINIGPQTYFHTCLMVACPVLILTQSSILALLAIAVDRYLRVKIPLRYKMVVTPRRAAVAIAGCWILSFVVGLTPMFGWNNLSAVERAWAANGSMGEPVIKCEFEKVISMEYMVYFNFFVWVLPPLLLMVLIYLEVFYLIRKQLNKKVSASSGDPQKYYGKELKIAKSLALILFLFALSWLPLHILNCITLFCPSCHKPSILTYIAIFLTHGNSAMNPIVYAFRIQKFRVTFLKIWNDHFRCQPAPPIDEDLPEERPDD
The class given is cell membranes, CHO, Membrane. The conditions noted are these: cho.

Another data set has as its target Cytochrome P450 2C9 (Homo sapiens, UniProt P11712). The conditions noted are these: bti-tn-5b1-4. Further: in other assays of this panel Not Active means under 50% inhibition at 10 µM.
Data set [1] deals with Matrix metalloproteinase-9 (Homo sapiens, UniProt P14780). The class given is cell-based.
Chain of Matrix metalloproteinase-9 (P14780 whole entry): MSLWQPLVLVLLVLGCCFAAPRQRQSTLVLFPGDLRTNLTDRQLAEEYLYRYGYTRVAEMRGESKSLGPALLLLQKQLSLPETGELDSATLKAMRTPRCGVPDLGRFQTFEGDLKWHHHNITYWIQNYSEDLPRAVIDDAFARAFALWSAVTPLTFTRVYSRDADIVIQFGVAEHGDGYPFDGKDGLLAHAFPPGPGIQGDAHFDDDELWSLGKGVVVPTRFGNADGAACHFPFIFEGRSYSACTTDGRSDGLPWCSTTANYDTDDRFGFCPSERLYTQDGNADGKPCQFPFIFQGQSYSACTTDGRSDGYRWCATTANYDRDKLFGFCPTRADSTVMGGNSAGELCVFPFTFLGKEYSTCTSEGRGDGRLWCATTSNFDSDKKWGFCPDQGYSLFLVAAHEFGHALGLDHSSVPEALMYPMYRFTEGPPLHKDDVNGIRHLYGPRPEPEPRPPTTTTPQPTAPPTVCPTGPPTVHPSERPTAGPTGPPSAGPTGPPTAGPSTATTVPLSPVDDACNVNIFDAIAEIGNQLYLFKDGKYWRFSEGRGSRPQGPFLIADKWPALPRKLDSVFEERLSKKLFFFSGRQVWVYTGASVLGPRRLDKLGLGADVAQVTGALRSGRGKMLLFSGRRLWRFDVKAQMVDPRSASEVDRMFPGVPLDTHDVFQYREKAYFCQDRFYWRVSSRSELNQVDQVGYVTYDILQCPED
The nature of data set [2]: DRUGMATRIX: Potassium Channel [KATP] radioligand binding (ligand: [3H] Glyburide). The class given is cell membranes, Membrane. The following applies: hit-t15; Not Active = under 50% inhibition at 10 µM.
The target in data set [3] is T2, Alpha-1B adrenergic receptor (Rattus norvegicus, UniProt P15823).
T2 sequence (P15823 whole entry): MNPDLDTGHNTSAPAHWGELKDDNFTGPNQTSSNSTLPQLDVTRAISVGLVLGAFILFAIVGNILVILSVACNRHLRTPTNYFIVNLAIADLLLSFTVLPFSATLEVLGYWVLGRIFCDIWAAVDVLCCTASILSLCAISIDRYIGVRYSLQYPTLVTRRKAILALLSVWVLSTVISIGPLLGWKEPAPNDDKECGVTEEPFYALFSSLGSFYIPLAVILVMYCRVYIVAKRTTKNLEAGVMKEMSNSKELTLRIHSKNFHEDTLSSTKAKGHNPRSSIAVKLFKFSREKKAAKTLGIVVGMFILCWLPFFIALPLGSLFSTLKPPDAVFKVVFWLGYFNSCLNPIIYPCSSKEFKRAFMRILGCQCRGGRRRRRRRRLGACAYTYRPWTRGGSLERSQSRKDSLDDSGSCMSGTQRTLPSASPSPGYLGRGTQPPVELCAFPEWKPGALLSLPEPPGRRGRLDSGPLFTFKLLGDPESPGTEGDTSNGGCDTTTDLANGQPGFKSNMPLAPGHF
The data set can be described thus: DRUGMATRIX: Alpha-1B adrenergic receptor radioligand binding (ligand: prazosin). The following applies: Not Active = under 50% inhibition at 10 µM. The class given is cell membranes, Wistar, Liver, Membrane.

In data set [4] the target is Platelet-activating factor receptor (Homo sapiens, UniProt P25105). The class given is tissue-based. Further: in other assays of this panel Not Active means under 50% inhibition at 10 µM.
Chain of Platelet-activating factor receptor (P25105 whole entry): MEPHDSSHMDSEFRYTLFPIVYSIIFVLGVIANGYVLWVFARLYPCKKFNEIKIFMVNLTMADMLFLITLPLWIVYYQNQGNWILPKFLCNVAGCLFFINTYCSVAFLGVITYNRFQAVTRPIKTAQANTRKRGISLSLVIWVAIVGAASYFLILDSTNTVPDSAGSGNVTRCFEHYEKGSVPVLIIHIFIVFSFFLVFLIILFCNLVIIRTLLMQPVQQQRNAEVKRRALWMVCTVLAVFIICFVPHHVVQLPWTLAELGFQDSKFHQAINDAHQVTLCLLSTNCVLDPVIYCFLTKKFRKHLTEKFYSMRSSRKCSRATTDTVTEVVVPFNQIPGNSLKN

Structures are written as SMILES.

Chain of Cytochrome P450 2C9 (P11712 whole entry): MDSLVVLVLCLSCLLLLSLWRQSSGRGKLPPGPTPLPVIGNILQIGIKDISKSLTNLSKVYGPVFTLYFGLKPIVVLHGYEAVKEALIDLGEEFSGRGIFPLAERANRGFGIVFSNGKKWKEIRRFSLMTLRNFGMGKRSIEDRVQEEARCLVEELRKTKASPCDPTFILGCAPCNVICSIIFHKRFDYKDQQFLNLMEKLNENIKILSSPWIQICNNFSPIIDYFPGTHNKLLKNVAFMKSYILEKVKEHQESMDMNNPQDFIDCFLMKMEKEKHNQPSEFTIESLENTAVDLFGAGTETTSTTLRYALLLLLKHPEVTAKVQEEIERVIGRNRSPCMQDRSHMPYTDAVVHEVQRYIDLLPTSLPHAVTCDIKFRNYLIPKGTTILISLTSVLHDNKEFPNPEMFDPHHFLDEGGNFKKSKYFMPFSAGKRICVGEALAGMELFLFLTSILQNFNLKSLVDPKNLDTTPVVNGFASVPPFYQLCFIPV

Usually IC50 stands for the concentration needed to halve the response being measured. The Ki is the equilibrium dissociation constant of an inhibitor or competing ligand from its target. Regarding `CO/N=C(\C(=O)N[C@@H]1C(=O)N2C(C(=O)O)=C(COC(C)=O)CS[C@H]12)c1csc(N)n1` [CEFOTAXIME], the IC50 entry (on Adenosine receptor A1; on Cytochrome P450 2C9; in data set [1]; in data set [2]; in data set [3]; in data set [4]) was “Not Active” in each case. Also, the Ki result (at Cytochrome P450 2C9; in data set [2]) was “Not Active” in each case.
`CNC1=Nc2ccc(Cl)cc2C(c2ccccc2)=[N+]([O-])C1` [CHLORDIAZEPOXIDE]: the IC50 entry (at Adenosine receptor A1; against Cytochrome P450 2C9; in data set [1]; in data set [2]; in data set [3]; in data set [4]) was “Not Active” each time. Further, the Ki entry (on Cytochrome P450 2C9; in data set [2]) was “Not Active” in each case.
In the case of `Cc1cc(O)cc(C)c1Cl` [CHLOROXYLENOL], the IC50 result (at Adenosine receptor A1; against Cytochrome P450 2C9; in data set [1]; in data set [2]; in data set [3]; in data set [4]) was “Not Active” throughout. Further, the Ki result (on Cytochrome P450 2C9; in data set [2]) was “Not Active” each time.
Take `CCCNC(=O)NS(=O)(=O)c1ccc(Cl)cc1` [CHLORPROPAMIDE]: the IC50 entry (on Adenosine receptor A1; against Cytochrome P450 2C9; in data set [1]; in data set [2]; in data set [3]; in data set [4]) was “Not Active” in each case. The Ki entry (on Cytochrome P450 2C9; in data set [2]) was “Not Active” throughout.
Take `NS(=O)(=O)c1cc(C2(O)NC(=O)c3ccccc32)ccc1Cl` (centres undefined) [CHLORTHALIDONE]: the IC50 result (against Adenosine receptor A1; against Cytochrome P450 2C9; in data set [1]; in data set [2]; in data set [3]; in data set [4]) was “Not Active” each time. In addition, the Ki result (at Cytochrome P450 2C9; in data set [2]) was “Not Active” each time.
Consider `O=C(O)CC(O)(CC(=O)O)C(=O)O` [CITRIC ACID], for which the IC50 entry (against Adenosine receptor A1; against Cytochrome P450 2C9; in data set [1]; in data set [2]; in data set [3]; in data set [4]) was “Not Active” each time. Moreover, the Ki result (on Cytochrome P450 2C9; in data set [2]) was “Not Active” in each case.
Regarding `CC(C)NCC(O)c1ccccc1Cl` (centres undefined) [CLORPRENALINE], the IC50 result (at Adenosine receptor A1; on Cytochrome P450 2C9; in data set [1]; in data set [2]; in data set [3]; in data set [4]) was “Not Active” each time. Besides, the Ki result (at Cytochrome P450 2C9; in data set [2]) was “Not Active” throughout.
`CN1CCN(C(c2ccccc2)c2ccccc2)CC1` [CYCLIZINE]: the IC50 result against Adenosine receptor A1 was “Not Active”; on Cytochrome P450 2C9, “Not Active”; in data set [1], “Not Active”; in data set [2], “Not Active”; in data set [3] (read-out: IC50), 2.49 µM; in data set [4], “Not Active”. For the same compound, the Ki entry at Cytochrome P450 2C9 is “Not Active”; in data set [2], “Not Active”; in data set [3] (read-out: Ki), 1.38 µM.
`CN1C[C@@H]2C[C@H]1CN2c1cc2c(cc1F)c(=O)c(C(=O)O)cn2C1CC1` [DANOFLOXACIN]: the IC50 entry (against Adenosine receptor A1; at Cytochrome P450 2C9; in data set [1]; in data set [2]; in data set [3]; in data set [4]) was “Not Active” in each case. In addition, the Ki result (at Cytochrome P450 2C9; in data set [2]) was “Not Active” in each case.
Regarding `COc1cccc2c1C(=O)c1c(O)c3c(c(O)c1C2=O)C[C@@](O)(C(C)=O)C[C@@H]3O[C@H]1C[C@H](N)[C@H](O)[C@H](C)O1` [DAUNORUBICIN], the IC50 entry (against Adenosine receptor A1; at Cytochrome P450 2C9; in data set [1]; in data set [2]; in data set [3]; in data set [4]) was “Not Active” in each case. Besides, the Ki result (on Cytochrome P450 2C9; in data set [2]) was “Not Active” in each case.
For `O=C(O)c1cc(-c2ccc(F)cc2F)ccc1O` [DIFLUNISAL], the IC50 entry (at Adenosine receptor A1; on Cytochrome P450 2C9; in data set [1]; in data set [2]; in data set [3]; in data set [4]) was “Not Active” throughout. Moreover, the Ki result (at Cytochrome P450 2C9; in data set [2]) was “Not Active” throughout.
With `C[S+](C)[O-]` [DIMETHYL SULFOXIDE], the IC50 result (against Adenosine receptor A1; at Cytochrome P450 2C9; in data set [1]; in data set [2]; in data set [3]; in data set [4]) was “Not Active” in each case. For the same compound, the Ki entry (on Cytochrome P450 2C9; in data set [2]) was “Not Active” throughout.
On to `CC1=NN(c2ccccc2)C(=O)C1` [EDARAVONE], for which the IC50 result (on Adenosine receptor A1; against Cytochrome P450 2C9; in data set [1]; in data set [2]; in data set [3]; in data set [4]) was “Not Active” in each case. Further, the Ki entry (at Cytochrome P450 2C9; in data set [2]) was “Not Active” throughout.
For `C[C@]12CC[C@@H]3c4ccc(O)cc4CC[C@H]3[C@@H]1C[C@@H](O)[C@@H]2O` [ESTRIOL], the IC50 entry (on Adenosine receptor A1; against Cytochrome P450 2C9; in data set [1]; in data set [2]; in data set [3]; in data set [4]) was “Not Active” each time. The Ki entry (at Cytochrome P450 2C9; in data set [2]) was “Not Active” each time.
For the compound `C#C[C@]1(O)CC[C@H]2[C@@H]3CCC4=CC(=O)CC[C@]4(C)[C@H]3CC[C@@]21C` [ETHISTERONE], the IC50 result (on Adenosine receptor A1; against Cytochrome P450 2C9; in data set [1]; in data set [2]; in data set [3]; in data set [4]) was “Not Active” throughout. Further, the Ki entry (at Cytochrome P450 2C9; in data set [2]) was “Not Active” throughout.
For the compound `CC(O)(P(=O)(O)O)P(=O)(O)O` [ETIDRONIC ACID], the IC50 result (on Adenosine receptor A1; against Cytochrome P450 2C9; in data set [1]; in data set [2]; in data set [3]; in data set [4]) was “Not Active” throughout. Further, the Ki entry (on Cytochrome P450 2C9; in data set [2]) was “Not Active” in each case.
As to `CN1CCN(c2c(F)cc3c(=O)c(C(=O)O)cn(CCF)c3c2F)CC1` [FLEROXACIN], the IC50 result (against Adenosine receptor A1; against Cytochrome P450 2C9; in data set [1]; in data set [2]; in data set [3]; in data set [4]) was “Not Active” each time. The Ki result (on Cytochrome P450 2C9; in data set [2]) was “Not Active” in each case.
Turning to `O=c1[nH]c(=O)n([C@H]2C[C@H](O)[C@@H](CO)O2)cc1F` [FLOXURIDINE], the IC50 result (on Adenosine receptor A1; against Cytochrome P450 2C9; in data set [1]; in data set [2]; in data set [3]; in data set [4]) was “Not Active” throughout. Besides, the Ki entry (at Cytochrome P450 2C9; in data set [2]) was “Not Active” in each case.
As to `COC(=O)Nc1nc2cc(C(=O)c3ccc(F)cc3)ccc2[nH]1` [FLUBENDAZOLE], the IC50 entry (at Adenosine receptor A1; against Cytochrome P450 2C9; in data set [1]; in data set [2]; in data set [3]; in data set [4]) was “Not Active” throughout. Further, the Ki entry (at Cytochrome P450 2C9; in data set [2]) was “Not Active” throughout.
Take `CC(=O)OCC(=O)[C@@]1(O)CC[C@H]2[C@@H]3CCC4=CC(=O)CC[C@]4(C)[C@@]3(F)[C@@H](O)C[C@@]21C` [FLUDROCORTISONE ACETATE]: the IC50 result (against Adenosine receptor A1; on Cytochrome P450 2C9; in data set [1]; in data set [2]; in data set [3]; in data set [4]) was “Not Active” throughout. The inhibition constant (Ki) result (at Cytochrome P450 2C9; in data set [2]) was “Not Active” each time.
For the compound `CCOC(=O)c1ncn2c1CN(C)C(=O)c1cc(F)ccc1-2` [FLUMAZENIL], the IC50 result (against Adenosine receptor A1; against Cytochrome P450 2C9; in data set [1]; in data set [2]; in data set [3]; in data set [4]) was “Not Active” each time. Besides, the Ki result (on Cytochrome P450 2C9; in data set [2]) was “Not Active” throughout.
